Data: patent US6620910B1, “Peptide compounds analogues of the glucagon-like peptide-1 (7-37)” (Les Laboratoires Servier, priority 1998, dated 2003)

Key:
[1] = target: T1, GLP-1 receptor (Rattus norvegicus, UniProt P32301); test: Agonist character: cyclic AMP production in RIN T3 cells; type: cell-based; details: 20 minutes at 25° C., 100% = cAMP induced by 10^−8M GLP-1
T1 construct: endogenous in cells; host or cells: RIN T3 cells (membranes in A1, whole cells in A2)
T1 sequence (P32301 22-463): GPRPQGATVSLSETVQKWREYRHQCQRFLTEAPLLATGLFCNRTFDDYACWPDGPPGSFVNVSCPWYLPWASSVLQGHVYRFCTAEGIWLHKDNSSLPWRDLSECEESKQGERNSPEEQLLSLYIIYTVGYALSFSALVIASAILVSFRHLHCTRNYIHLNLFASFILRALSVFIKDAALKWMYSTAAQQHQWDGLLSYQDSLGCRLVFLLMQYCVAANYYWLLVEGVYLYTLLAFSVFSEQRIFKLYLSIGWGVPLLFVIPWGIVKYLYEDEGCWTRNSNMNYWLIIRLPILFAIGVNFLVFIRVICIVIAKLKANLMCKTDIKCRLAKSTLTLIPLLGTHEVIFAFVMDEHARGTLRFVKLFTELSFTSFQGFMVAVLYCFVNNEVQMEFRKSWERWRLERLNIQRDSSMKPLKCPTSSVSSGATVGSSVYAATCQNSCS
Procedure: The agonist character of the compounds of the invention was determined by measuring the production of cyclic AMP after activation of the receptor by the different products being tested.
RIN T3 cells are cultured for 6 days and the culture medium is chanced 1 day before the experiment. The cells (3×10^5 per well) are washed twice with DMEM before the addition of 0.5 ml of DMEM containing 1% BSA, 0.2 ml of IBMX and the peptide being tested. After incubation for 20 minutes at 25° C., the intracellular cAMP is extracted, succinylated and quantified by radioimmunoassay.
The reference value of 100% corresponds to the production of cAMP induced by a concentration of 10^−8M GLP-1 and the value 0% corresponds to the basal production in the absence of GLP-1.

[2] = in vitro; type: in vitro ADME; details: human, plasma
Procedure: An aliqout of 50 μg/ml of a solution containing the peptide to be studied is incubated in human plasma at 37° C. An HPLC linear analysis method allows measurement of the amount of peptide at time T0, then after incubation for 5, 10, 15, 30 and 60 minutes.

[3] = target: T1, GLP-1 receptor; test: GLP-1 receptor binding study (RIN T3 membranes, [125I]-GLP-1); details: [125I]-GLP-1, 45 min at 37° C., read-out: affinity (IC50)
Procedure: The GLP-1 receptor binding studies were carried out using RIN T3 membranes in a […] Tris-HCl buffer pH 7.5 containing 4% BSA and […] of bacitracin. The membranes (20 to 30 μg) are incubated in a final volume of 500 μl with approximately 15 fmol of [125I]-GLP-1 (50,000 cpm) and the cold competitor for 45 min. at 37° C. The reaction is stopped by the addition of 750 μl of cold KRP buffer, pH 7.5, containing 3% BSA. The mixture is centrifuged at 12,000×g (4° C., 5 min). The residue is resuspended in 1 ml of cold KRP buffer and sedimented by a further centrifugation, and the radioactivity is measured. The results are expressed as IC50.

[4] = target: dipeptidyl peptidase IV (DPP IV) (Homo sapiens, UniProt P27487); test: Metabolic stability towards dipeptidyl peptidase IV; type: in vitro ADME
Procedure: Each compound is dissolved in 50 mg/ml of BSA in an aqueous 1% trifluoroacetic acid solution to obtain a concentration of 1 mg/ml.
50 μl samples of the above-prepared solution containing 1 mg/ml of the peptide are added to 940 μl of 0.1M TRIS, pH 8.0. After analysis of the solution by HPLC to determine the amount of peptide, 10 μl of an aqueous solution containing 48 milli-units of dipeptidyl peptidase IV (DPP IV) are added, and the samples are analysed by HPLC at time T0 and after incubation for 10 minutes at 37° C.
The measurement results enable evaluation of the amount of peptide remaining and are expressed as a percentage in relation to T0.

Chain of dipeptidyl peptidase IV (DPP IV) (P27487 whole entry, species assumed): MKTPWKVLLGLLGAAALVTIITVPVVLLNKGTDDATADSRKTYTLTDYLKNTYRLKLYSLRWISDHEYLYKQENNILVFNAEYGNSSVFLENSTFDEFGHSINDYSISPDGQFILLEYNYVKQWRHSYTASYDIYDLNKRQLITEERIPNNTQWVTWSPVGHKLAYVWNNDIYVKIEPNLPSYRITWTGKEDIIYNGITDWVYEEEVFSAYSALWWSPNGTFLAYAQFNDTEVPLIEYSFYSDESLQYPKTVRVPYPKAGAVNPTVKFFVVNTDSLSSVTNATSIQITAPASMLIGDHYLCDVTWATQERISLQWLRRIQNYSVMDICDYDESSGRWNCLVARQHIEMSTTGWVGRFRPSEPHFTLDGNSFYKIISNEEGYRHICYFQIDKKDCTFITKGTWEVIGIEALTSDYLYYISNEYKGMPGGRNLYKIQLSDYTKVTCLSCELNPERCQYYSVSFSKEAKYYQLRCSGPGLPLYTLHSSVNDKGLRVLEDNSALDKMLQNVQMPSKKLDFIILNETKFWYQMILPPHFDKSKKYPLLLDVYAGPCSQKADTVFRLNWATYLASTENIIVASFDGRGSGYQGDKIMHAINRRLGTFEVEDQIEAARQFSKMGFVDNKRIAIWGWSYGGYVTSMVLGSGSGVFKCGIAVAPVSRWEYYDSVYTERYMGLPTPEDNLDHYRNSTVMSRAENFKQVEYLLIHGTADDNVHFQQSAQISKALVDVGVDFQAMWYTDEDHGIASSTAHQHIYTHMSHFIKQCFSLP

Compound: CC[C@H](C)[C@H](NC(=O)[C@H](Cc1ccccc1)NC(=O)[C@H](CCC(=O)O)NC(=O)[C@H](CCCCN)NC(=O)[C@H](C)NC(=O)[C@H](C)NC(=O)[C@H](CCC(N)=O)NC(=O)CNC(=O)[C@H](CCC(=O)O)NC(=O)[C@H](CC(C)C)NC(=O)[C@H](Cc1ccc(O)cc1)NC(=O)[C@H](CO)NC(=O)[C@H](CO)NC(=O)[C@@H](NC(=O)[C@H](CC(=O)O)NC(=O)[C@H](CO)NC(=O)[C@@H](NC(=O)[C@H](Cc1ccccc1)NC(=O)[C@@H](NC(=O)CNC(=O)[C@H](CCC(=O)O)NC(=O)[C@@H](C)NC(=O)[C@@H](N)Cc1c[nH]cn1)[C@@H](C)O)[C@@H](C)O)C(C)C)C(=O)N[C@@H](C)C(=O)N[C@@H](Cc1c[nH]c2ccccc12)C(=O)N[C@@H](CC(C)C)C(=O)N[C@H](C(=O)N[C@@H](CCCCN)C(=O)NCC(=O)NCC(N)=O)C(C)C [Example 7]
- EC50 [1]: 1.02 nM
- remaining at 5 min, 50 μg/ml [2]: 100%
- remaining at 10 min, 50 μg/ml [2]: 100%
- remaining at 0.25 h, 50 μg/ml [2]: 100%
- remaining at 0.5 h, 50 μg/ml [2]: 100%
- remaining at 1 h, 50 μg/ml [2]: 100%
- IC50 [3]: 0.33 nM
- remaining at 10 min, 50 μg/ml ([4]; isolated enzyme dpp iv, pH 8): 100%

Compound: Glucagon-Like Peptides-1 (7-37) and (7-36) NH2 [^tGLP1, reference compound]
- DDP IV % peptide remaining ([4]; incubation time 10 minutes, 37° C., 48 milli-units DPP IV, 0.1M TRIS pH 8.0, relative to T0): 8%
